Reference: ChEMBL document CHEMBL1201862, “PubChem BioAssay data set” (2004)
The source made the active and inactive calls.

Assays:
[1] = THP-1 cell cytotoxicity, dose response, cytotoxicity control for non-replicating M. tuberculosis project (AID 489025); format: functional
[2] = Vero E6 cell cytotoxicity, dose response, cytotoxicity control for non-replicating M. tuberculosis project, secondary assay (AID 492998); format: functional, VeroE6; conditions: Vero C1008
cells = format: functional
[3] = inhibitors of Vif binding to APOBEC3G peptide, primary screen, biochemical, TR-FRET, GST-Vif 1-94, biotin-A3G peptide, dose response retest (AID 1117319); format: functional;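 further: TR-FRET signal of purified GST-Vif binding a biotinylated A3G peptide; inhibitors lower the FRET signal by blocking Vif and A3G binding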
[4] = cytotoxicity in HEK-293T cells, dose response, cytotoxicity control for BCR NF-kB inhibitor project, luminescence, B-cell screen hits (AID 489021); format: functional, cell-based;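 further: HEK-293T cells carrying an NF-kB luciferase reporter; cells exposed to compound for about 14 hours before viability readout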
[5] = biological target: T1, Short transient receptor potential channel 4 (Mus musculus, UniProt Q9QUQ5); assay: mouse TRPC4 channel inhibitors, dose response, cell-based, HEK293 TRPC4/mu-opioid, Fluo-4 calcium (AID 434942); format: functional;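 further: potency of inhibitors blocking the TRPC4 calcium response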
T1 sequence (Q9QUQ5 whole entry): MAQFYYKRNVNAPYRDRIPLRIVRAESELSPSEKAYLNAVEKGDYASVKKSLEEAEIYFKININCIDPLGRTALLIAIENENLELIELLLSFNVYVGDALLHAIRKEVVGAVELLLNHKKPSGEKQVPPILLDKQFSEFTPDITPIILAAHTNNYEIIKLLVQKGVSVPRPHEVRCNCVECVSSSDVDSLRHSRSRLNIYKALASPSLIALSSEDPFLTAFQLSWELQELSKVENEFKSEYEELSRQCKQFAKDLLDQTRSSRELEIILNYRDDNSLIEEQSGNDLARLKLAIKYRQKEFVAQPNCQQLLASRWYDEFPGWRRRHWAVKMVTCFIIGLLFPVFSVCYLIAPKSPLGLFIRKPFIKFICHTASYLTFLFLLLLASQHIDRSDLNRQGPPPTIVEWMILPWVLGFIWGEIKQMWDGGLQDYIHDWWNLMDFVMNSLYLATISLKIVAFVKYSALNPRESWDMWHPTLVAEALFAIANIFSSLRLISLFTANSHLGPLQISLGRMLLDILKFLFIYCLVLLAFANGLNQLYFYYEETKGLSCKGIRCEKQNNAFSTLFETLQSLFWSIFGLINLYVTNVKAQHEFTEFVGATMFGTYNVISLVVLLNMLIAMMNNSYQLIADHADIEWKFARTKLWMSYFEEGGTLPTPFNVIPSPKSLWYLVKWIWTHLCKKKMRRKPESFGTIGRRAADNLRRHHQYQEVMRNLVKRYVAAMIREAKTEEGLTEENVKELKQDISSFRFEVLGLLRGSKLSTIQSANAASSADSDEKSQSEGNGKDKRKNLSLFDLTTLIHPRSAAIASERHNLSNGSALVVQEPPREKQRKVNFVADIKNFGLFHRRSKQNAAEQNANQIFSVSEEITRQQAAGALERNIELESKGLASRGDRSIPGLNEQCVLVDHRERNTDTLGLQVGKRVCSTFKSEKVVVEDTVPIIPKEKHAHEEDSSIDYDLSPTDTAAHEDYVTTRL

Large T antigen = Large T antigen (Simian virus 40, UniProt P03070); format: functional, Betapolyomavirus macacae;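 further: Confirmatory-stage PubChem screen for compounds that inhibit SV40 T antigen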
[6] = biological target: T2, Heat shock factor protein 1 (Mus musculus, UniProt P38532); assay: inhibition of MG132-induced HSE-luciferase signal, confirmation, cell-based, NIH3T3, luminescence, dose retest (AID 2382); format: functional;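 further: NIH3T3 fibroblasts with HSF1-driven luciferase reporter stressed by proteasome inhibitor MG132; luminescence from HSF1-driven luciferase expression after 8 hours of MG132 stress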
T2 sequence (P38532 whole entry): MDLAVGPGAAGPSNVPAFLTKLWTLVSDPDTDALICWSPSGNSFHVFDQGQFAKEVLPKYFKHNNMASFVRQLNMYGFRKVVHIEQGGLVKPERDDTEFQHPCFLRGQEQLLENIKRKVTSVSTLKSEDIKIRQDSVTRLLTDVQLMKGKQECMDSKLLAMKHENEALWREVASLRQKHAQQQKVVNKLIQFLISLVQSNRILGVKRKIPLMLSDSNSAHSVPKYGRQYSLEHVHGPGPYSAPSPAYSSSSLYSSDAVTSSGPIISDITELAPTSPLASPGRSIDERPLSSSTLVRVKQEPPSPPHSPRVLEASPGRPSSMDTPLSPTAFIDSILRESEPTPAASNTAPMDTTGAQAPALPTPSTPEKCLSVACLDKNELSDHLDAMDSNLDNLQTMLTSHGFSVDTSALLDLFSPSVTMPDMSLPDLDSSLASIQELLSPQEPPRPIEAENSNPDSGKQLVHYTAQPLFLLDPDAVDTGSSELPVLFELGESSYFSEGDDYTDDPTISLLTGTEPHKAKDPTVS

BJ [7] = assay: cytotoxicity toward BJ-TERT fibroblasts, dose response, cell-based, RAS-independent, luminescence (AID 1933); format: functional; conditions: Homo sapiens
[8] = inhibitors of SNCA 5'UTR-driven reporter translation, confirmation, H4 neuroglioma cells, luminescence (AID 1988); format: functional, cell-based
BJ [9] = assay: cells; format: functional, cell-based; conditions: Homo sapiens
[10] = inhibitors of firefly luciferase expression or activity, dose response, H4 neuroglioma cells, luminescence (AID 1990); format: functional, cell-based
[11] = Luminescence Cell-Based Dose Response HTS to Identify Inhibitors of 5'UTR Stem-Loop Driven Prion Protein mRNA Translation in H4 Neuroglioblastoma Cells. [Related pubchem assays: 1827 (Project Summary), 1813 (Primary HTS)]; format: functional
[12] = cytotoxicity toward DRD oncogenic fibroblasts, dose response, cell-based, non-viral oncogenic, luminescence (AID 1934); format: functional; conditions: Homo sapiens
BJ [13] = assay: cytotoxicity toward BJ-TERT-LT-ST fibroblasts, dose response, cell-based, RAS-independent, luminescence (AID 1935); format: functional; conditions: Homo sapiens;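 further: BJ fibroblasts immortalized with TERT plus LT and ST oncogenes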
[14] = THP-1 cell cytotoxicity, dose response, cytotoxicity control for Vif-APOBEC3G degradation inhibitor project, THP-1 cells (AID 1117359); format: functional; conditions: Human immunodeficiency virus 1, THP-1
[15] = biological target: Glucose-6-phosphate 1-dehydrogenase (Homo sapiens, UniProt P11413); assay: human G6PD enzyme inhibitors, dose response, selectivity assay for P. falciparum G6PD inhibitor project, biochemical, fluorescence (AID 504792); format: functional
Mu-type opioid receptor = Mu-type opioid receptor (Homo sapiens, UniProt P35372); assay: (§1) Counterscreen for agonists of heterodimerization of the mu 1 (OPRM1) and delta 1 (OPRD1) opioid receptors: Luminescence-based cell-based high throughput dose response assay to identify agonists of OPRM1 homodimerization.; format: functional
[16] = biological target: T1, Short transient receptor potential channel 4; assay: mouse TRPC4 channel activators, dose response, cell-based, HEK293 TRPC4/mu-opioid, Fluo-4 calcium (AID 434937); format: functional
[17] = biological target: Delta-type opioid receptor (Homo sapiens, UniProt P41143); assay: as §1, with “of OPRD1” for “of OPRM1”, “homodimerization. [Related pubchem assays (depositor defined):AID504326, AID504355, AID504692, AID504904, AID504905]” for “homodimerization.”; format: functional
[18] = biological target: 5-hydroxytryptamine receptor 5A (Homo sapiens, UniProt P47898); assay: Counterscreen for agonists of OPRM1-OPRD1 heterodimerization: luminescence-based cell-based high throughput dose response assay to identify agonists of 5-hydroxytryptamine (serotonin) 5A receptor (HTR5A). [Related pubchem assays (depositor defined):AID504326, AID504355, AID504692, AID504904, AID504905]; format: functional
HEK293 = assay: inhibitors of LMP1-driven NF-kB reporter, dose response, cell-based, HEK293, luciferase, cherry-pick (AID 588343); format: functional; conditions: Homo sapiens
[19] = Luminescence Cell-Based Dose Retest to Confirm Inhibitors of Cancer Stem Cells. [Related pubchem assays (depositor defined):AID2717, AID2721]; format: functional; conditions: Homo sapiens
[20] = P. falciparum Dd2 growth inhibitors, dose response, SYBR Green, cherry-picked samples (AID 1159567); format: functional, cell-based

Chain of Glucose-6-phosphate 1-dehydrogenase (P11413 whole entry): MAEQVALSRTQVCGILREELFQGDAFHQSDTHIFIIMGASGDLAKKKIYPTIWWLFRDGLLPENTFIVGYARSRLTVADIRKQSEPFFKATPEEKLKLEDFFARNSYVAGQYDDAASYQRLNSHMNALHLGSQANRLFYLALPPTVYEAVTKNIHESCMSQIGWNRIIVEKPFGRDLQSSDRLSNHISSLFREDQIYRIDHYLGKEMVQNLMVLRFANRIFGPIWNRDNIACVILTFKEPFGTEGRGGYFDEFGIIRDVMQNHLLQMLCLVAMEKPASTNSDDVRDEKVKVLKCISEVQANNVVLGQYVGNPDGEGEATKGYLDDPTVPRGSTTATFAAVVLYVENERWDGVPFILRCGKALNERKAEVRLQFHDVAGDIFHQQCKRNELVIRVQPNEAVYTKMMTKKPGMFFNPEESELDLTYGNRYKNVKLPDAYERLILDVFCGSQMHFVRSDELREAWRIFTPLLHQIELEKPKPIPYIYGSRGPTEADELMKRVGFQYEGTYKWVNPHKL
Chain of Mu-type opioid receptor (P35372 whole entry): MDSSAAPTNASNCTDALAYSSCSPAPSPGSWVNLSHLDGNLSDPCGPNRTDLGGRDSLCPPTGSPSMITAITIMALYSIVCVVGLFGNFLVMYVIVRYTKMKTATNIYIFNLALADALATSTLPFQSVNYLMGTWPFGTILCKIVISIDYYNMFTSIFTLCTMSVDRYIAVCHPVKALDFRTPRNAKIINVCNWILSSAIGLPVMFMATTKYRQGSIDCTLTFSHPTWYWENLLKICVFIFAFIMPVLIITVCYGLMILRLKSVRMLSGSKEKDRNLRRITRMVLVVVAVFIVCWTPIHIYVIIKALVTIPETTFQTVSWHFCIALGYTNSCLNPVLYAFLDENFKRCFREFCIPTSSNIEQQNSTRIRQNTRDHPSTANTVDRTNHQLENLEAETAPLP
Chain of Large T antigen (P03070 whole entry): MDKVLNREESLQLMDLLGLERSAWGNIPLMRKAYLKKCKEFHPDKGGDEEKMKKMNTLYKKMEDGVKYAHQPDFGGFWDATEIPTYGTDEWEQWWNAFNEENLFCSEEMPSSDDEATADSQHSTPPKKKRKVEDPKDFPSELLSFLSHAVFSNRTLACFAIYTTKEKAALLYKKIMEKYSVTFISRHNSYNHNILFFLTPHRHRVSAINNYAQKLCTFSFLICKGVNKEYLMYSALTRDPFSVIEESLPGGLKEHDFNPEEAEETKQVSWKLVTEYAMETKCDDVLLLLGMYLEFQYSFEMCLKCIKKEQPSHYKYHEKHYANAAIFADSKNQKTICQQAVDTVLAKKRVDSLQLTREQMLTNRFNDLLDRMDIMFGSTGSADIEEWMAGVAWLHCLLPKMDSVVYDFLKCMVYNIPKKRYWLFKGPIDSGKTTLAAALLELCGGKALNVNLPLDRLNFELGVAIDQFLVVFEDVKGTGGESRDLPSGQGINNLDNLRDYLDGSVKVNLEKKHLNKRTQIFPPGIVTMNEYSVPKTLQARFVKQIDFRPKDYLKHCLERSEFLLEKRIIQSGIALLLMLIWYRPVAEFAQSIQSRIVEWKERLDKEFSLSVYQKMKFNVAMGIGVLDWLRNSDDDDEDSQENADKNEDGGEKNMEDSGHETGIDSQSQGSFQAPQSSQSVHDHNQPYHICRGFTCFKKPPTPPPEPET
Chain of 5-hydroxytryptamine receptor 5A (P47898 whole entry): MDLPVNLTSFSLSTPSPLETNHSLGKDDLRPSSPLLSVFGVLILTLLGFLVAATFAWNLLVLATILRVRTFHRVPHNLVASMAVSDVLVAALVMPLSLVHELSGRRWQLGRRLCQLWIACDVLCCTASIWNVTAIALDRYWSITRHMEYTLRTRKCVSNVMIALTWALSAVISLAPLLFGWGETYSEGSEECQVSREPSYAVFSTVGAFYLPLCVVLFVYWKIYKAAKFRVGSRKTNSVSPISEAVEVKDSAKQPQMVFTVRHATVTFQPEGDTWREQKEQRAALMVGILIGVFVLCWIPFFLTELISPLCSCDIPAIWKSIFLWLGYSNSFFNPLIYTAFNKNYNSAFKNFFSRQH
Chain of Delta-type opioid receptor (P41143 whole entry): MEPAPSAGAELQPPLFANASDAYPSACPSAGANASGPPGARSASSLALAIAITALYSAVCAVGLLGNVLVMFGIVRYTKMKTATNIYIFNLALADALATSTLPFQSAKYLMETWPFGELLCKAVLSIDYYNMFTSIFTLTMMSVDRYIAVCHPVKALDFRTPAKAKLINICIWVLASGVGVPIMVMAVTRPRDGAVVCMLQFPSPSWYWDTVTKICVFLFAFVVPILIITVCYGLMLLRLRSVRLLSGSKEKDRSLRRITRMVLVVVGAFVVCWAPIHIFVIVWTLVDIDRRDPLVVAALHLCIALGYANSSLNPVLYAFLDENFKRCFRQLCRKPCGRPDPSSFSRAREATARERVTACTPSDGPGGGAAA

## FC(F)(F)c1nnc2ccc(Cl)nn12
[1]
  CC50: 8.62 µM (active)
[2]
  CC50: > 20 µM (active)
cells
  IC50: 1.82 µM (active)

## COc1ccc(-c2[nH]c(-c3ccc(C)cc3)nc2SCC(=O)NCc2ccco2)cc1OC
[3]
  IC50: > 100 µM (active)

## CCCOc1ccc(NC(=O)C(=O)NCCCn2ccnc2)cc1
[4]
  IC50: > 80 µM (inactive)

## O=C1COc2ccc(N3C(=O)C=CC3=O)cc2N1
[5]
  EC50: 6.68 µM (active)
Large T antigen
  IC50: > 100 µM (active)
[6]
  EC50: 9.09 µM (active)

## COc1ccc(S(=O)(=O)Nc2cc3c(C(C)=O)c(C)oc3c3ccccc23)cc1
[4]
  IC50: > 80 µM (inactive)
BJ [7]
  EC50: 1.59 µM (active)
[8]
  EC50: 0.294 µM (active)
BJ [9]
  EC50: 4.49 µM (active)
[10]
  EC50: 2.35 µM (active)
[11]
  EC50: 2.67 µM (active)
[12]
  EC50: 1.91 µM (active)
BJ [13]
  EC50: 1.26 µM (active)

## O=C1NC(=O)N(Cc2ccco2)C(=O)/C1=C/NCc1ccc2c(c1)OCO2
[3]
  IC50: > 100 µM (active)

## Cc1nc([N+](=O)[O-])c(Br)n1Cc1ccccc1
[1]
  CC50: 30.1 µM (active)
[2]
  CC50: > 20 µM (active)
cells
  IC50: 9.77 µM (active)

## O=C(CSc1nnnn1-c1ccc2c(c1)CCC2)Nc1ccc2c(c1)OCCO2
[14]
  CC50: > 40 µM (active)

## COc1ccc(N=C2C(=S)N(c3ccc(OC)cc3)C(=NS(=O)(=O)c3ccccc3)N2c2ccccc2)cc1
[15]
  IC50: > 80 µM (inactive)

## CCOC(=O)C1(CC2CC2)CCN(Cc2cnc(-c3ccccc3C)nc2)CC1
Mu-type opioid receptor
  EC50: > 92.5 µM (inactive)
[16]
  EC50: 5.31 µM (active)
[17]
  EC50: > 92.5 µM (inactive)
[18]
  EC50: > 92.5 µM (inactive)

## Cc1nn(C(C)(C)C)c(C)c1/C=N/OC(=O)Nc1ccc(Cl)c(Cl)c1
[4]
  IC50: > 80 µM (inactive)
[6]
  EC50: < 0.16 µM (active)
HEK293
  AC50: 0.839 µM (active)

## CC(C)(C)c1ccc(O)c(O)c1
[19]
  AC50: 4.47 µM (active)
[15]
  IC50: > 80 µM (inactive)

## COc1ccc(/N=c2\scc(-c3ccc(OC)cc3)n2CCO)cc1
[14]
  CC50: 28.5 µM (active)
[3]
  IC50: > 100 µM (active)

## C[C@H](CO)N1C[C@H](C)[C@H](CN(C)S(=O)(=O)c2ccccc2)Oc2cc(C#Cc3ccncc3)ccc2S1(=O)=O
[20]
  AC50: 6.63 µM (active)
